From patent US10435388B2, “Selective inhibitors of clinically important mutants of the EGFR tyrosine kinase” (CS PHARMATECH LIMITED, priority 2016, dated 2019)
Where a name gives a salt, the structure may show the parent alone.

Assays:
Details in all cases: cellular proliferation, several runs
PC9 cells (SM) = assay: PC-9 growth inhibition assay (cell proliferation), Method B; type: cell-based, human
Procedure: (§1) Cell Proliferation Assays—Method B
(§2) Test compounds were dissolved in DMSO at 30 mM.
(§3) The final concentration was 1,000 cells/well. Add medium only as low control. […] 5% CO2 incubator for 72 hours.
(§4) After 72 hours incubation, remove the plates from incubator and equilibrate at room temperature for 15 minutes. Incubate the CellTiter Glo reagents (Promega, G9243) at 37° C. before the experiment. The buffer was equilibrated to room temperature and used to dissolve the substrate. To determine the cell viability, add 40 μL of CellTiter-Glo reagent into each well to be detected (at 1:1 to culture medium). Then the place the plates at room temperature for 30 min followed by read on EnSpire (PerkinElmer).
(§5) For estimation of IC50, the luminescence readout are transformed to % Inhibition by applying the following equation: The IC50 was then
(§6) [formula] calculated by fitting in XLFit to a four parameters logistic curve.
PC-9 Growth Inhibition Assay (Cell Proliferation).
The inhibition assay of PC-9 cells was conducted in the same manner as described above for H1975 cells.

A431 cells (WT) = assay: A431 inhibition assay (cell proliferation), Method B; type: cell-based, human
Procedure: as §1
A431 Inhibition Assay, (Cell Proliferation).
The rest procedure was conducted in the same manner as described above for H1975 cells.

H1975 cells (DM) = assay: H1975 inhibition assay (cell proliferation), Method B; type: cell-based
Procedure: as §1
H1975 Inhibition Assay (Cell Proliferation).
as §2, §3, §4, §5, §6

C=CC(=O)Nc1cc(Nc2ncc(Cl)c(-c3c[nH]c(=O)c(C)c3)n2)c(OC)cc1N(C)CCN(C)C [Example 38, N-(5-((5-Chloro-4-(3-methyl-2-oxo-1,6-dihydropyridin-5-yl)pyrimidin-2-yl)amino)-2-((2-(dimethylamino)ethyl)(methyl)amino)-4-methoxyphenyl) acrylamide]
IC50 (PC9 cells (SM); Homo sapiens, PC-9, 72 h): 0.0827 µM | IC50 (A431 cells (WT); Homo sapiens, A-431, 72 h): 1.32 µM | IC50 (H1975 cells (DM); Homo sapiens, NCI-H1975, 72 h): 0.082 µM

C=CC(=O)Nc1cc(Nc2ncc(Cl)c(-c3ccc(N(C)C)nc3)n2)c(OC)cc1N(C)CCN(C)C [Example 26, N-(5-((5-Chloro-4-(6-(dimethylamino)pyridin-3-yl)pyrimidin-2-yl)amino)-2-((2-(dimethylamino)ethyl)(methyl)amino)-4-methoxyphenyl) acrylamide]
IC50 (PC9 cells (SM); Homo sapiens, PC-9, 72 h): 0.0373 µM | IC50 (A431 cells (WT); Homo sapiens, A-431, 72 h): 1.03 µM | IC50 (H1975 cells (DM); Homo sapiens, NCI-H1975, 72 h): 0.025 µM

C=CC(=O)Nc1cc(Nc2nccc(-c3c[nH]c4c(N(C)C)nccc34)n2)c(OC)cc1N(C)CCN(C)C [Example 50, N-(5-(4-(7-(Dimethylamino)-1H-pyrrolo[2,3-c]pyridin-3-yl)pyrimidin-2-ylamino)-2-(N-(2-(dimethylamino)ethyl)-N-methylamino)-4-methoxyphenyl) acrylamide]
IC50 (PC9 cells (SM); Homo sapiens, PC-9, 72 h): 0.0144 µM | IC50 (A431 cells (WT); Homo sapiens, A-431, 72 h): 0.118 µM | IC50 (H1975 cells (DM); Homo sapiens, NCI-H1975, 72 h): 0.00762 µM

C=CC(=O)Nc1cc(Nc2nccc(-n3nc(NS(C)(=O)=O)c4ccccc43)n2)c(OC)cc1N(C)CCN(C)C [Example 44, N-(5-(4-(3-(N-methanesulfonylamido)-1H-indazol-1-yl)pyrimidin-2-ylamino)-2-(N-(2-(dimethylamino)ethyl)-N-methylamino)-4-methoxyphenyl) acrylamide]
IC50 (PC9 cells (SM); Homo sapiens, PC-9, 72 h): 0.475 µM | IC50 (A431 cells (WT); Homo sapiens, A-431, 72 h): 9.07 µM | IC50 (H1975 cells (DM); Homo sapiens, NCI-H1975, 72 h): 0.174 µM

C=CC(=O)Nc1cc(Nc2nccc(-n3cc(-c4c[nH]nn4)c4ccccc43)n2)c(OC)cc1N(C)CCN(C)C [Example 61, N-(5-(4-(3-(1H-1,2,3-Triazol-4-yl)-1H-indol-1-yl)pyrimidin-2-ylamino)-2-(N-(2-(dimethylamino)ethyl)-N-methylamino)-4-methoxyphenyl) acrylamide]
IC50 (PC9 cells (SM); Homo sapiens, PC-9, 72 h): 0.0295 µM | IC50 (A431 cells (WT); Homo sapiens, A-431, 72 h): 1.07 µM | IC50 (H1975 cells (DM); Homo sapiens, NCI-H1975, 72 h): 0.094 µM

C=CC(=O)Nc1cc(Nc2nccc(-n3nc(N4CCCC4)c4ccccc43)n2)c(OC)cc1N(C)CCN(C)C [Example 59, N-(5-(4-(3-(Pyrrolidin-1-yl)-1H-indazol-1-yl)pyrimidin-2-ylamino)-2-(N-(2-(dimethylamino)ethyl)-N-methylamino)-4-methoxyphenyl) acrylamide]
IC50 (PC9 cells (SM); Homo sapiens, PC-9, 72 h): 0.0197 µM | IC50 (A431 cells (WT); Homo sapiens, A-431, 72 h): 0.716 µM | IC50 (H1975 cells (DM); Homo sapiens, NCI-H1975, 72 h): 0.00845 µM

C=CC(=O)Nc1cc(Nc2nccc(-n3nc(N(C)C)c4ccccc43)n2)c(OCC(F)F)nc1N(C)CCN(C)C [Example 71]
IC50 (PC9 cells (SM); Homo sapiens, PC-9, 72 h): 0.00245 µM | IC50 (A431 cells (WT); Homo sapiens, A-431, 72 h): 0.48 µM | IC50 (H1975 cells (DM); Homo sapiens, NCI-H1975, 72 h): 0.00329 µM

C=CC(=O)Nc1cc(Nc2nccc(-c3c[nH]c4c(=O)[nH]ccc34)n2)c(OC)cc1N(C)CCN(C)C [Example 22, N-(2-((2-(Dimethylamino)ethyl)(methyl)amino)-4-methoxy-5-((4-(7-oxo-6,7-dihydro-1H-pyrrolo[2,3-c]pyridin-3-yl)pyrimidin-2-yl)amino)phenyl) acrylamide]
IC50 (PC9 cells (SM); Homo sapiens, PC-9, 72 h): 0.0626 µM | IC50 (PC9 cells (SM); 72 h): 0.0524 µM | IC50 (A431 cells (WT); Homo sapiens, A-431, 72 h): 1.69 µM | IC50 (A431 cells (WT); 72 h): 1.19 µM | IC50 (H1975 cells (DM); Homo sapiens, NCI-H1975, 72 h): 0.137 µM | IC50 (H1975 cells (DM); 72 h): 0.0927 µM

C=CC(=O)Nc1cc(Nc2nccc(-n3nc(C(F)F)c4ccccc43)n2)c(OC)cc1N(C)CCN(C)C [Example 35, N-(5-((4-(3-(Difluoromethyl)-1H-indazol-1-yl)pyrimidin-2-yl)amino)-2-((2-(dimethylamino)ethyl)(methyl)amino)-4-methoxyphenyl) acrylamide hydrochloride]
IC50 (PC9 cells (SM); Homo sapiens, PC-9, 72 h): 0.0333 µM | IC50 (A431 cells (WT); Homo sapiens, A-431, 72 h): 2.02 µM | IC50 (H1975 cells (DM); Homo sapiens, NCI-H1975, 72 h): 0.0294 µM

C=CC(=O)Nc1cc(Nc2nccc(-n3cc(C(N)=O)c4ncccc43)n2)c(OC)cc1N(C)CCN(C)C [Example 49, 1-(2-(5-Acrylamido-4-((2-(dimethylamino)ethyl)(methyl)amino)-2-methoxyphenylamino)pyrimidin-4-yl)-1H-pyrrolo[3,2-b]pyridine-3-carboxamide]
IC50 (PC9 cells (SM); Homo sapiens, PC-9, 72 h): 0.00061 µM | IC50 (A431 cells (WT); Homo sapiens, A-431, 72 h): 0.137 µM | IC50 (H1975 cells (DM); Homo sapiens, NCI-H1975, 72 h): 0.00184 µM

C=CC(=O)Nc1cc(Nc2nccc(-c3c[nH]c4c(-c5cc[nH]n5)cccc34)n2)c(OC)cc1N(C)CCN(C)C [Example 46, N-(5-(4-(7-(1H-Pyrazol-3-yl)-1H-indol-3-yl)pyrimidin-2-ylamino)-2-(N-(2-(dimethylamino)ethyl)-N-methylamino)-4-methoxyphenyl) acrylamide]
IC50 (PC9 cells (SM); Homo sapiens, PC-9, 72 h): 0.0212 µM | IC50 (A431 cells (WT); Homo sapiens, A-431, 72 h): 0.253 µM | IC50 (H1975 cells (DM); Homo sapiens, NCI-H1975, 72 h): 0.116 µM

C=CC(=O)Nc1cc(Nc2nccc(-n3nc(C(N)=O)c4c3CCC4)n2)c(OC)cc1N(C)CCN(C)C [Example 29, 1-(2-((5-Acrylamido-4-((2-(dimethylamino)ethyl)(methyl)amino)-2-methoxyphenyl)amino)pyrimidin-4-yl) cyclopenta[c]pyrazole-3-carboxamide]
IC50 (PC9 cells (SM); Homo sapiens, PC-9, 72 h): 0.0237 µM | IC50 (A431 cells (WT); Homo sapiens, A-431, 72 h): 0.777 µM | IC50 (H1975 cells (DM); Homo sapiens, NCI-H1975, 72 h): 0.00524 µM

C=CC(=O)Nc1cc(Nc2nccc(-n3nc(NC4CCOC4)c4ccccc43)n2)c(OC)cc1N(C)CCN(C)C (stereo not drawn) [Example 65, N-(5-(4-(3-(Tetrahydrofuran-3-ylamino)-1H-indazol-1-yl)pyrimidin-2-ylamino)-2-(N-(2-(dimethylamino)ethyl)-N-methylamino)-4-methoxyphenyl) acrylamide]
IC50 (PC9 cells (SM); Homo sapiens, PC-9, 72 h): 0.00646 µM | IC50 (A431 cells (WT); Homo sapiens, A-431, 72 h): 0.121 µM | IC50 (H1975 cells (DM); Homo sapiens, NCI-H1975, 72 h): 0.00421 µM

C=CC(=O)Nc1cc(Nc2nccc(-n3nc(NC(C)=O)c4ccccc43)n2)c(OC)cc1N(C)CCN(C)C [Example 53, N-(5-(4-(3-Acetamido-1H-indazol-1-yl)pyrimidin-2-ylamino)-2-((2-(dimethylamino)ethyl)(methyl)amino)-4-methoxyphenyl) acrylamide]
IC50 (PC9 cells (SM); Homo sapiens, PC-9, 72 h): 0.00309 µM | IC50 (A431 cells (WT); Homo sapiens, A-431, 72 h): 0.0825 µM | IC50 (H1975 cells (DM); Homo sapiens, NCI-H1975, 72 h): 0.00623 µM

C=CC(=O)Nc1cc(Nc2ncc(Cl)c(-c3cncc(C(N)=O)c3)n2)c(OC)cc1N(C)CCN(C)C [Example 24, 5-(2-((5-Acrylamido-4-((2-(dimethylamino)ethyl)(methyl)amino)-2-methoxyphenyl)amino)-5-chloropyrimidin-4-yl)nicotinamide hydrochloride]
IC50 (PC9 cells (SM); Homo sapiens, PC-9, 72 h): 0.067 µM | IC50 (A431 cells (WT); Homo sapiens, A-431, 72 h): 6.99 µM | IC50 (H1975 cells (DM); Homo sapiens, NCI-H1975, 72 h): 0.103 µM

C=CC(=O)Nc1cc(Nc2ncc(Cl)c(-c3ccc(NC)nc3)n2)c(OC)cc1N(C)CCN(C)C [Example 25, N-(5-((5-Chloro-4-(6-(methylamino)pyridin-3-yl)pyrimidin-2-yl)amino)-2-((2-(dimethylamino)ethyl)(methyl)amino)-4-methoxyphenyl) acrylamide]
IC50 (PC9 cells (SM); Homo sapiens, PC-9, 72 h): 0.0631 µM | IC50 (A431 cells (WT); Homo sapiens, A-431, 72 h): 2.1 µM | IC50 (H1975 cells (DM); Homo sapiens, NCI-H1975, 72 h): 0.0198 µM

C=CC(=O)Nc1cc(Nc2nccc(-n3cc(C(=O)NC)c4ncccc43)n2)c(OC)cc1N(C)CCN(C)C [Example 51, N-Methyl 1-(2-(5-acrylamido-4-((2-(dimethylamino)ethyl)(methyl)amino)-2-methoxyphenylamino)pyrimidin-4-yl)-1H-pyrrolo[3,2-b]pyridine-3-carboxamide]
IC50 (PC9 cells (SM); Homo sapiens, PC-9, 72 h): 0.00151 µM | IC50 (A431 cells (WT); Homo sapiens, A-431, 72 h): 0.239 µM | IC50 (H1975 cells (DM); Homo sapiens, NCI-H1975, 72 h): 0.00301 µM
